Test results as given in ChEMBL document CHEMBL1159107, “Novel semisynthetic spin-labeled derivatives of podophyllotoxin with cytotoxic and antioxidative activity” (Bioorg Med Chem Lett, 2010).

Legend:
[1] = system: Kidney; test: Antioxidant activity in Sprague-Dawley rat kidney assessed as inhibition of malonaldehyde; type: functional, tissue-based
[2] = system: Liver; test: Antioxidant activity in Sprague-Dawley rat liver assessed as inhibition of malonaldehyde; type: functional, tissue-based
[3] = system: HL-60; test: Cytotoxicity against human HL60 cells after 48 hrs; type: functional, cell-based; details: HL-60, 48 h
[4] = system: A549; test: Cytotoxicity against human A549 cells after 48 hrs; type: functional, cell-based; details: A549, 48 h
[5] = system: RPMI-8226; test: Cytotoxicity against human RPMI8226 cells after 48 hrs; type: functional, cell-based; details: RPMI-8226, 48 h
[6] = system: Heart; test: Antioxidant activity in Sprague-Dawley rat heart assessed as inhibition of malonaldehyde; type: functional, tissue-based

Structure (SMILES)	IC50 [1] [nM]	IC50 [2] [nM]	IC50 [3] [nM]	IC50 [4] [nM]	IC50 [5] [nM]	IC50 [6] [nM]
COc1cc([C@@H]2c3cc4c(cc3[C@@H](NC(=O)[C@H](CCSC)NC(=O)OC3CC(C)(C)N([O])C(C)(C)C3)[C@H]3COC(=O)[C@H]23)OCO4)cc(OC)c1O	7550	6850	670	420	480	5890
COc1cc([C@@H]2c3cc4c(cc3[C@@H](NC(=O)[C@H](CC(C)C)NC(=O)OC3CC(C)(C)N([O])C(C)(C)C3)[C@H]3COC(=O)[C@H]23)OCO4)cc(OC)c1O	8470	8850	160	190	89	
COc1cc([C@@H]2c3cc4c(cc3[C@@H](NC(=O)[C@@H](NC(=O)OC3CC(C)(C)N([O])C(C)(C)C3)C(C)O)[C@H]3COC(=O)[C@H]23)OCO4)cc(OC)c1O (some centres not stated)	7450	7120	210	210	78	8790
COc1cc([C@@H]2c3cc4c(cc3[C@@H](NC(=O)[C@H](C)NC(=O)OC3CC(C)(C)N([O])C(C)(C)C3)[C@H]3COC(=O)[C@H]23)OCO4)cc(OC)c1O	7680	7640	220	120	260	6390
COc1cc([C@@H]2c3cc4c(cc3[C@@H](NC(=O)CNC(=O)OC3CC(C)(C)N([O])C(C)(C)C3)[C@H]3COC(=O)[C@H]23)OCO4)cc(OC)c1O	8900	7470	320	210	330	7190
COc1cc([C@@H]2c3cc4c(cc3[C@@H](NC(=O)[C@@H](NC(=O)OC3CC(C)(C)N([O])C(C)(C)C3)C(C)C)[C@H]3COC(=O)[C@H]23)OCO4)cc(OC)c1O	8880	8690	240	150	61	8040
COc1cc([C@@H]2c3cc4c(cc3[C@@H](NC(=O)[C@H](Cc3ccccc3)NC(=O)OC3CC(C)(C)N([O])C(C)(C)C3)[C@H]3COC(=O)[C@H]23)OCO4)cc(OC)c1O	9630	6550	210	210	90	7390
COc1cc([C@@H]2c3cc4c(cc3[C@@H](O[C@@H]3O[C@@H]5CO[C@@H](C)O[C@H]5[C@H](O)[C@H]3O)[C@H]3COC(=O)[C@H]23)OCO4)cc(OC)c1O [ETOPOSIDE]	23800	43900	420	290	140	40700
